Results taken from ChEMBL document CHEMBL2396543, “Development of time resolved fluorescence resonance energy transfer-based assay for FXR antagonist discovery” (Bioorg Med Chem, 2013).
Activity calls are given as the source filed them.

Experiments:
[1] = target: T1, Bile acid receptor (Homo sapiens) (UniProt Q96RI1); test: Binding affinity to human GTS-tagged FXR LBD using fluorescein-tagged SRC2-2 at 10 nM after 15 to 30 mins by TR-FRET assay
T1 sequence (whole entry): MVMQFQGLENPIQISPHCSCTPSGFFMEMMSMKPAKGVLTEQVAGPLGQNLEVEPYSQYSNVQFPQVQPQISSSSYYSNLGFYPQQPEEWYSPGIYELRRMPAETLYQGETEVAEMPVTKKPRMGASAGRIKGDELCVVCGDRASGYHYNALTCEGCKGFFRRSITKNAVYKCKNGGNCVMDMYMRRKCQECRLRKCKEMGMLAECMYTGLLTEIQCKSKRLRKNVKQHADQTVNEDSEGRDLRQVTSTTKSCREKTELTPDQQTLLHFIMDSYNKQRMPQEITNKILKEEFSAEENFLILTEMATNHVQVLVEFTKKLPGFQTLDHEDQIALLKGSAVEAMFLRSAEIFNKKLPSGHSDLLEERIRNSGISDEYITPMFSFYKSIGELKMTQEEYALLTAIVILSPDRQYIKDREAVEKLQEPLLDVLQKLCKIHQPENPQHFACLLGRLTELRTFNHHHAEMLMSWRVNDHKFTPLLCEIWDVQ

[2] = target: T1, Bile acid receptor (Homo sapiens); test: Binding affinity to human GTS-tagged FXR LBD using fluorescein-tagged SRC2-2 at 10 nM after 15 to 30 mins by TR-FRET assay in presence of fexaramine
[3] = target: T1, Bile acid receptor (Homo sapiens); test: Binding affinity to human GTS-tagged FXR LBD using fluorescein-tagged SRC2-2 at 10 nM after 15 to 30 mins by TR-FRET assay in presence of GW4064

Measured: Activity

CC(C)c1onc(-c2c(Cl)cccc2Cl)c1COc1ccc(/C=C/c2cccc(C(=O)NNC(=S)Nc3ccc(-c4c5ccc(=O)cc-5oc5cc(O)ccc45)c(C(=O)O)c3)c2)c(Cl)c1
active: all assays above
